Source: publication PMC6837752, “Effectiveness of four types of neuraminidase inhibitors approved in Japan for the treatment of influenza” (PLoS ONE, 2019)
Where “and” joins values, the source holds several entries; their conditions need not be identical. Equal values may be shown once.

Tests used:
[1] = system: influenza A/H1N1pdm09, A/H3N2, and B viruses; assay: Fever duration after NAI treatment in outpatients with laboratory confirmed influenza (observational study); format: in vivo, human; conditions: for HR (Cox proportional hazards model of fever duration): multivariable analysis, compared to oseltamivir (reference 1.00); for Mean fever duration after NAI treatment: univariate analysis, all patients aged <20 years, all types/subtypes, from start of treatment to <37.5 °C
[2] = system: influenza B; conditions: patients aged 5 to 18 years, cited from earlier work
[3] = system: oseltamivir-sensitive influenza A/H1N1pdm09 virus; format: in vivo; conditions: oseltamivir-treated patients 0–5 years, oseltamivir-sensitive viruses, n = 111

Molecule | Average fever duration ([1]; age group 0 to 5 years) [h] | Average fever duration ([1]; age group 6 to 9 years) [h] | Average fever duration ([1]; age group 10 to 19 years) [h] | HR (Cox proportional hazards model of fever duration) [1] | Mean fever duration after NAI treatment [1] [h] | Median fever duration longer than for peramivir ([2]; P <0.01) [days] | Median fever duration after treatment [2] [days] | Average fever duration [3]
peramivir | 46.3 | 31.3 | 32.3 | 1.05 | 38.3 |  |  | 
[H]/N=C(\N)N[C@H]1C=C(C(=O)O)O[C@@H]([C@H](OC)[C@H](O)CO)[C@@H]1NC(C)=O [Laninamivir, laninamivir] | 75.8 | 42.9 | 36.6 | 0.78 | 39.8 | 1 | 3 | 
CC(=O)N[C@H]1[C@H]([C@H](O)[C@H](O)CO)OC(C(=O)O)=C[C@@H]1N=C(N)N [Zanamivir, zanamivir] | 45.4 | 42.3 | 35.4 | 0.87 | 38.5 |  |  | 
CCOC(=O)C1=C[C@@H](OC(CC)CC)[C@H](NC(C)=O)[C@@H](N)C1 [Oseltamivir, oseltamivir] | 42.2 | 37.3 | 29.8 | 1.00 | 40.1 |  |  | 40 h and 40 ± 27 h
